Measured values published in the Kinase Knowledgebase extract (Sharma et al. 2016).

Molecular target: EGFR (Wistar rat) (UniProt P00533)
Settings: hepatocyte, dose or concentration not given here

EGFR (Wistar rat), sequence (P00533 whole entry, looked up): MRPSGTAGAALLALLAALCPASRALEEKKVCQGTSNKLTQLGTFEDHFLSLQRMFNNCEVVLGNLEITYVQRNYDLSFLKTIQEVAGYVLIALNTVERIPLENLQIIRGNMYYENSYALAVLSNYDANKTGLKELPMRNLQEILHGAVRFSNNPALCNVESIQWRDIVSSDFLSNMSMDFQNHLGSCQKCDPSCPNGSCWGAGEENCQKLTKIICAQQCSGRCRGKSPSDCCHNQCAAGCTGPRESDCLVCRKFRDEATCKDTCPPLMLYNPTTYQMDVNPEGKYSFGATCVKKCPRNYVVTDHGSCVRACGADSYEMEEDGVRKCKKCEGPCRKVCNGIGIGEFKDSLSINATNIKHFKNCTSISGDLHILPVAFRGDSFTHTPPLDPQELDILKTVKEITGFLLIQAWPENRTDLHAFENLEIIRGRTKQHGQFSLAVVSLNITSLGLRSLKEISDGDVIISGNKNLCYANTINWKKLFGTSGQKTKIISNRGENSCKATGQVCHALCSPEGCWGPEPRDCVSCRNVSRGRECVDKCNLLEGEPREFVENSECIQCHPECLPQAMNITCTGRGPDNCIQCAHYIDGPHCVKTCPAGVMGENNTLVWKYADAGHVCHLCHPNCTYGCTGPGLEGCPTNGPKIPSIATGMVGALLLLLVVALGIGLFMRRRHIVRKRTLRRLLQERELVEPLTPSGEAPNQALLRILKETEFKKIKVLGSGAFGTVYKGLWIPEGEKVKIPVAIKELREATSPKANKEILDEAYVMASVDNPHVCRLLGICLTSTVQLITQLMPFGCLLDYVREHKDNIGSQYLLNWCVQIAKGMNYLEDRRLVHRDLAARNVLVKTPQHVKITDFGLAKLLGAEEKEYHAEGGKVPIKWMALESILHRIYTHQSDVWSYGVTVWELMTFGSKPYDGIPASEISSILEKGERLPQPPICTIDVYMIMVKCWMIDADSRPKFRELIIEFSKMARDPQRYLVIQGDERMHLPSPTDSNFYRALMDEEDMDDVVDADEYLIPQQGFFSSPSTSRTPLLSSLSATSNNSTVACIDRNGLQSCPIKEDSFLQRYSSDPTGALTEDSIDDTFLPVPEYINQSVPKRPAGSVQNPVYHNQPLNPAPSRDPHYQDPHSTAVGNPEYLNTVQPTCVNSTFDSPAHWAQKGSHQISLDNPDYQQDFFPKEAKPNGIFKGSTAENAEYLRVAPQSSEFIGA

COc1cccc(-c2cc(=O)c3ccccc3o2)c1N
DNA synthesis: 16%
